Patent publication US9447100B2, “Substituted pyrazolo[1,5-A] pyrimidines as calcium receptor modulating agents” (Takeda Pharmaceutical Company Limited, priority 2002, dated 2016)

| SMILES | melting point [°C] |
| --- | --- |
| COc1ccc(C(NC(=O)c2cnn3c2NC(c2ccccc2)CC3(C)C)c2ccc(OC)cc2)cc1 (centres unmarked) [Example 407, N-(bis(4-methoxyphenyl)methyl)-7,7-dimethyl-5-phenyl-4,5,6,7-tetrahydropyrazolo[1,5-a]pyrimidine-3-carboxamide] | 184 to 185 |
| CC1(C)CC(c2ccccc2)Nc2c(C(=O)NC(c3ccc(C(F)(F)F)cc3)(C3CCCCC3)C3CCCCC3)cnn21 (centres unmarked) [Example 412, N-(dicyclohexyl(4-(trifluoromethyl)phenyl)methyl)-7,7-dimethyl-5-phenyl-4,5,6,7-tetrahydropyrazolo[1,5-a]pyrimidine-3-carboxamide] | 146 to 147 |
| CCC(CC)(NC(=O)c1cnn2c1NC(c1ccccc1)CC2(C)C)c1ccc(Br)cc1 (centres unmarked) [Example 413, N-(1-(4-bromophenyl)-1-ethylpropyl)-7,7-dimethyl-5-phenyl-4,5,6,7-tetrahydropyrazolo[1,5-a]pyrimidine-3-carboxamide] | 129 to 130 |
| CCC(NC(=O)c1cnn2c1NC(c1ccccc1)CC2(C)C)c1ccccc1Br (centres unmarked) [Example 416, N-(1-(2-bromophenyl)propyl)-7,7-dimethyl-5-phenyl-4,5,6,7-tetrahydropyrazolo[1,5-a]pyrimidine-3-carboxamide] | 200 to 201 |
| CCC1(NC(=O)c2cnn3c2NC(c2ccccc2)CC3(C)C)CCCCC1 (centres unmarked) [Example 431, N-(1-ethylcyclohexyl)-7,7-dimethyl-5-phenyl-4,5,6,7-tetrahydropyrazolo[1,5-a]pyrimidine-3-carboxamide] | 166 to 167 |
| CCC(CC)(NC(=O)c1cnn2c1NC(c1ccccc1)CC2(C)C)C1CCCCC1 (centres unmarked) [Example 432, N-(1-cyclohexyl-1-ethylpropyl)-7,7-dimethyl-5-phenyl-4,5,6,7-tetrahydropyrazolo[1,5-a]pyrimidine-3-carboxamide] | 130 to 131 |
| CC1(C)CC(c2ccccc2)Nc2c(C(=O)NC(C3CCCCC3)C3CCCCC3)cnn21 (centres unmarked) [Example 433, N-(dicyclohexylmethyl)-7,7-dimethyl-5-phenyl-4,5,6,7-tetrahydropyrazolo[1,5-a]pyrimidine-3-carboxamide] | 187 to 188 |
| CCC(CC)(NC(=O)c1cnn2c1NC(c1ccccc1)CC2(C)C)c1ccc(Cl)nc1 (centres unmarked) [Example 573, N-(1-(6-chloro-3-pyridinyl)-1-ethylpropyl)-7,7-dimethyl-5-phenyl-4,5,6,7-tetrahydropyrazolo[1,5-a]pyrimidine-3-carboxamide] | 223 to 224 |
| CCC(CC)(NC(=O)c1cnn2c1NC(c1ccccc1)CC2(C)C)c1ccc(C#N)cc1 (centres unmarked) [Example 574, N-(1-(4-cyanophenyl)-1-ethylpropyl)-7,7-dimethyl-5-phenyl-4,5,6,7-tetrahydropyrazolo[1,5-a]pyrimidine-3-carboxamide] | 237 to 238 |
| CCC1(NC(=O)c2cnn3c2NC(c2ccccc2)CC3(C)C)CCSCC1 (centres unmarked) [Example 575, N-(4-ethyltetrahydro-2H-thiopyran-4-yl)-7,7-dimethyl-5-phenyl-4,5,6,7-tetrahydropyrazolo[1,5-a]pyrimidine-3-carboxamide] | 97 to 98 |
| COc1ccccc1C1CC(C)(C)n2ncc(C(=O)NC34CC5CC(CC(C5)C3)C4)c2N1 (centres unmarked) [Example 581, N-1-adamantyl-5-(2-methoxyphenyl)-7,7-dimethyl-4,5,6,7-tetrahydropyrazolo[1,5-a]pyrimidine-3-carboxamide] | 280 to 282 |
| CCC1(NC(=O)c2cnn3c2NC(c2ccccc2)CC3(C)C)CCOCC1 (centres unmarked) [Example 582, N-(4-ethyltetrahydro-2H-pyran-4-yl)-7,7-dimethyl-5-phenyl-4,5,6,7-tetrahydropyrazolo[1,5-a]pyrimidine-3-carboxamide] | 104 to 105 |
| CC1(NC(=O)c2cnn3c2NC(c2ccccc2)CC3(C)C)CCCCC1 (centres unmarked) [Example 586, 7,7-dimethyl-N-(1-methylcyclohexyl)-5-phenyl-4,5,6,7-tetrahydropyrazolo[1,5-a]pyrimidine-3-carboxamide] | 170 to 171 |
| C#CC1(NC(=O)c2cnn3c2NC(c2ccccc2)CC3(C)C)CCCCC1 (centres unmarked) [Example 587, N-(1-ethynylcyclohexyl)-7,7-dimethyl-5-phenyl-4,5,6,7-tetrahydropyrazolo[1,5-a]pyrimidine-3-carboxamide] | 201 to 202 |
| CCC(CC)(NC(=O)c1cnn2c1NC(c1ccccc1)CC2(C)C)c1ccc(F)c(F)c1 (centres unmarked) [Example 589, N-(1-(3,4-difluorophenyl)-1-ethylpropyl)-7,7-dimethyl-5-phenyl-4,5,6,7-tetrahydropyrazolo[1,5-a]pyrimidine-3-carboxamide] | 171 to 172 |
| CCC(CC)(NC(=O)c1cnn2c1NC(c1ccccc1OC)CC2(C)C)c1ccc(F)cc1 (centres unmarked) [Example 600, N-(1-ethyl-1-(4-fluorophenyl)propyl)-5-(2-methoxyphenyl)-7,7-dimethyl-4,5,6,7-tetrahydropyrazolo[1,5-a]pyrimidine-3-carboxamide] | 206.2 to 206.3 |
| CCC(CC)(NC(=O)c1cnn2c1NC(c1ccccn1)CC2(C)C)c1ccc(F)cc1 (centres unmarked) [Example 601, N-(1-ethyl-1-(4-fluorophenyl)propyl)-7,7-dimethyl-5-(2-pyridinyl)-4,5,6,7-tetrahydropyrazolo[1,5-a]pyrimidine-3-carboxamide] | 167 to 169 |
| CCC(CC)(NC(=O)c1cnn2c1NC(c1ncc(C)s1)CC2(C)C)c1ccc(F)cc1 (centres unmarked) [Example 602, N-(1-ethyl-1-(4-fluorophenyl)propyl)-7,7-dimethyl-5-(5-methyl-1,3-thiazol-2-yl)-4,5,6,7-tetrahydropyrazolo[1,5-a]pyrimidine-3-carboxamide] | 163.5 to 163.6 |
| CCC(CC)(NC(=O)c1cnn2c1NC(c1cccc(OC)n1)CC2(C)C)c1ccc(F)cc1 (centres unmarked) [Example 603, N-(1-ethyl-1-(4-fluorophenyl)propyl)-5-(6-methoxy-2-pyridinyl)-7,7-dimethyl-4,5,6,7-tetrahydropyrazolo[1,5-a]pyrimidine-3-carboxamide] | 156 to 157 |
| CCC1(NC(=O)c2cnn3c2NC(c2ccccc2)CC3(C)C)CCC(C)CC1 (centres unmarked) [Example 612, N-(1-ethyl-4-methylcyclohexyl)-7,7-dimethyl-5-phenyl-4,5,6,7-tetrahydropyrazolo[1,5-a]pyrimidine-3-carboxamide] | 160 to 161 |
| CCC(CC)(NC(=O)c1cnn2c1NC(c1ccccc1)CC2(C)C)c1cccc(Br)c1 (centres unmarked) [Example 613, N-(1-(3-bromophenyl)-1-ethylpropyl)-7,7-dimethyl-5-phenyl-4,5,6,7-tetrahydropyrazolo[1,5-a]pyrimidine-3-carboxamide] | 195 to 196 |
| CCC(CC)(NC(=O)c1cnn2c1NC(c1ccccc1)CC2(C)C)c1cccc(Cl)c1 (centres unmarked) [Example 614, N-(1-(3-chlorophenyl)-1-ethylpropyl)-7,7-dimethyl-5-phenyl-4,5,6,7-tetrahydropyrazolo[1,5-a]pyrimidine-3-carboxamide] | 195 to 196 |

Further lines, results first:

| melting point [°C] | SMILES |
| --- | --- |
| 180 to 181 | CC1(C)CC(c2ccccc2)Nc2c(C(=O)NC(c3ccc(Cl)cc3)c3ccc(Cl)cc3)cnn21 (centres unmarked) [Example 405, N-(bis(4-chlorophenyl)methyl)-7,7-dimethyl-5-phenyl-4,5,6,7-tetrahydropyrazolo[1,5-a]pyrimidine-3-carboxamide] |
| 206 to 207 | CC1(C)CC(c2ccccc2)Nc2c(C(=O)N(Cc3ccccc3)Cc3ccccc3)cnn21 (centres unmarked) [Example 408, N,N-dibenzyl-7,7-dimethyl-5-phenyl-4,5,6,7-tetrahydropyrazolo[1,5-a]pyrimidine-3-carboxamide] |
| 164 to 165 | CC1(C)CC(c2ccccc2)Nc2c(C(=O)N(Cc3ccc(C(F)(F)F)cc3)Cc3ccc(C(F)(F)F)cc3)cnn21 (centres unmarked) [Example 409, 7,7-dimethyl-5-phenyl-N,N-bis(4-(trifluoromethyl)benzyl)-4,5,6,7-tetrahydropyrazolo[1,5-a]pyrimidine-3-carboxamide] |
| 113 to 114 | CCCCC(CCCC)(NC(=O)c1cnn2c1NC(c1ccccc1)CC2(C)C)c1ccc(C(F)(F)F)cc1 (centres unmarked) [Example 411, N-(1-butyl-1-(4-(trifluoromethyl)phenyl)pentyl)-7,7-dimethyl-5-phenyl-4,5,6,7-tetrahydropyrazolo[1,5-a]pyrimidine-3-carboxamide] |
| 196 to 197 | CCC(CC)(NC(=O)c1cnn2c1NC(c1ccccc1)CC2(C)C)c1ccc(C(C)(C)C)cc1 (centres unmarked) [Example 417, N-(1-(4-tert-butylphenyl)-1-ethylpropyl)-7,7-dimethyl-5-phenyl-4,5,6,7-tetrahydropyrazolo[1,5-a]pyrimidine-3-carboxamide] |
| 182 to 183 | CC(C)(NC(=O)c1cnn2c1NC(c1ccccc1)CC2(C)C)c1ccc(C(F)(F)F)cc1 (centres unmarked) [Example 427, 7,7-dimethyl-N-(1-methyl-1-(4-(trifluoromethyl)phenyl)ethyl)-5-phenyl-4,5,6,7-tetrahydropyrazolo[1,5-a]pyrimidine-3-carboxamide] |
| 166 to 167 | CCC(CC)(NC(=O)c1cnn2c1NC(c1ccccc1)CC2(C)C)c1cccc(C(F)(F)F)c1 (centres unmarked) [Example 434, N-(1-ethyl-1-(3-(trifluoromethyl)phenyl)propyl)-7,7-dimethyl-5-phenyl-4,5,6,7-tetrahydropyrazolo[1,5-a]pyrimidine-3-carboxamide] |
| 167 to 168 | CCC(CC)(NC(=O)c1cnn2c1NC(c1ccccc1)CC2(C)C)c1ccc(-c2ccco2)cc1 (centres unmarked) [Example 584, N-(1-ethyl-1-(4-(2-furyl)phenyl)propyl)-7,7-dimethyl-5-phenyl-4,5,6,7-tetrahydropyrazolo[1,5-a]pyrimidine-3-carboxamide] |
| 185 to 186 | CCC(CC)(NC(=O)c1cnn2c1NC(c1ccccc1)CC2(C)C)c1ccc(-c2ccoc2)cc1 (centres unmarked) [Example 585, N-(1-ethyl-1-(4-(3-furyl)phenyl)propyl)-7,7-dimethyl-5-phenyl-4,5,6,7-tetrahydropyrazolo[1,5-a]pyrimidine-3-carboxamide] |
| 211 to 213 | CCC(CC)(NC(=O)c1cnn2c1NC(c1ccccc1OC)CC2(C)C)c1ccc(C(F)(F)F)cc1 (centres unmarked) [Example 590, N-(1-ethyl-1-(4-(trifluoromethyl)phenyl)propyl)-5-(2-methoxyphenyl)-7,7-dimethyl-4,5,6,7-tetrahydropyrazolo[1,5-a]pyrimidine-3-carboxamide] |
